Test results from US20190241864A1, “Composition Comprising Non-Germinant and Bacterial Spores” (NOVOZYMES BIOAG A/S, priority 2016, published 2019).

Key:
[1] = test system: spores from Bacillus pumilus strain SB3189; assay: Germinant testing of heat-activated spores, decrease in relative OD580; type: cell-based; conditions: 3 mM
[2] = test system: spores from Bacillus amyloliquefaciens strain SB3615; assay: as above; conditions: substance alone, 3 mM; 37° C., 70 minutes
[3] = test system: spores from Bacillus megaterium strain SB3112; assay: as above; type: cell-based; conditions: Example 2 studies, 3 mM
[4] = test system: Bacillus megaterium strain SB3112 spores; assay: Spore germination by DPA release after L-asparagine treatment; type: cell-based; conditions: for Gmax: mean of 3
[5] = test system: Bacillus pumilus strain SB3189 spores; assay: Spore germination by dipicolinic acid (DPA) release (Tb-DPA fluorescence) after L-valine treatment; type: cell-based; conditions: for Gmax: then 10 mM AAGFK, mean of 3
Method: This was performed three consecutive times.
Germination of spores in these studies was determined by measuring dipicolinic acid (DPA). DPA is about 10% of the mass of endospores, all of which is generally released when germination is triggered. Boiling spores generally releases all of the DPA. DPA release was detected using terbium chloride (TbCl3), as described below.
To perform the germination assays, 30 μl of spores were added to wells of a 96-well flat-bottom microtiter plate. Subsequently, 35 μl of a 250 μM TbCl3 stock was added. At time 0, 85 μl of a 10 mM L-alanine+10 mM AGFK (10 mM AGFK is 10 mM each of L-asparagine, D-glucose, D-fructose, and KCl) (10 mM AAGFK) was added. […] Tb-DPA is excited at 270 nm and emits at 545 nm. All experimental samples were tested in triplicate. Baseline controls for each sample were generated by omitting L-alanine and these were performed in duplicate. All sample wells were measured immediately after […] was added (time 0) and then over time. For each time point, the data were normalized to values for the spores that had been boiled for two hours to force 100% release of DPA from the spores.

With `O=C(CO)[C@@H](O)[C@H](O)[C@H](O)CO` [D-fructose] the “germination of spores by substance alone” value [1] was “None of L-alanine, L-cysteine, D-fructose, or sucrose alone, at a concentration of 3 mM, caused germination”.
`C[C@H](N)C(=O)O` [L-alanine] was tested, and the germination of spores [2] was “could cause germination” and the “germination of spores by substance alone” value [1] was “None of L-alanine, L-cysteine, D-fructose, or sucrose alone, at a concentration of 3 mM, caused germination”.
In the case of `NC(=O)C[C@H](N)C(=O)O` [L-asparagine], the germinant behavior [3] is reported as “not shown to have germinant behavior”, the “Gmax compared to spores not pretreated with L-asparagine” value (from here on “Gmax compared to spores not pretreated”) ([4]; 4° C., native and heat-activated spores, all tested concentrations) is reported as “increased Gmax” and the “Gmax compared to spores not pretreated” value ([4]; 22° C., 3.0 mM, both native and heat-activated spores) is reported as “increased Gmax”. The “Gmax compared to spores not pretreated” value ([4]; 22° C., 10 mM, native spores) was “also increased Gmax”, the Gmax ([4]; heat activated spores, 0.5 mM L-asparagine overnight at 4° C.) was 106% and the Gmax ([4]; heat activated spores, 0.5 mM L-asparagine overnight at 22° C.) was 81%. For the same molecule, the Gmax ([4]; heat activated spores, 3.0 mM L-asparagine overnight at 4° C.) was 109%, the Gmax ([4]; heat activated spores, 3.0 mM L-asparagine overnight at 22° C.) was 102% and the Gmax ([4]; heat activated spores, 10.0 mM L-asparagine overnight at 4° C.) was 114%. The Gmax ([4]; heat activated spores, 10.0 mM L-asparagine overnight at 22° C.) was 79%, the Gmax ([4]; native spores, 0.5 mM L-asparagine overnight at 4° C.) was 29% and the Gmax ([4]; native spores, 0.5 mM L-asparagine overnight at 22° C.) was 56%. The Gmax ([4]; native spores, 3.0 mM L-asparagine overnight at 4° C.) was 28%, the Gmax ([4]; native spores, 3.0 mM L-asparagine overnight at 22° C.) was 100% and the Gmax ([4]; native spores, 10.0 mM L-asparagine overnight at 4° C.) was 29%. It also gave a Gmax ([4]; native spores, 10.0 mM L-asparagine overnight at 22° C.) of 81%.
For `N[C@@H](CS)C(=O)O` [L-cysteine], the “germination of spores by substance alone” value [1] was “None of L-alanine, L-cysteine, D-fructose, or sucrose alone, at a concentration of 3 mM, caused germination”.
`CC(C)[C@H](N)C(=O)O` [L-valine] was tested, and the Gmax ([5]; 0.5 mM L-valine 24 hours at 4° C.) was 74%, the Gmax ([5]; 0.5 mM L-valine 24 hours at 22° C.) was 6% and the “change of Gmax” value ([5]; 0.5 mM L-valine at 22° C.) was “the Gmax decreased”. The Gmax ([5]; 3.0 mM L-valine 24 hours at 4° C.) was 70%, the Gmax ([5]; 3.0 mM L-valine 24 hours at 22° C.) was 43% and the “increase in Gmax compared to the control that did not contain L-valine” value ([5]; 3.0 mM L-valine at 22° C.) was roughly 3 fold. For the same molecule, the Gmax ([5]; 10.0 mM L-valine 24 hours at 4° C.) was 76%, the Gmax ([5]; 10.0 mM L-valine 24 hours at 22° C.) was 77% and the “increase in Gmax compared to the control that did not contain L-valine” value ([5]; 10.0 mM L-valine at 22° C.) was roughly 5 fold. For the same molecule, the “change of Tlag” value ([5]; L-valine 0.5-10.0 mM, 4° C. and 22° C.) was “Tlag was not changed”, the “effects on germination parameters” value ([5]; L-valine incubated with spores at 4° C.) was “small effects on germination parameters” and the germinant activity ([1]; tested in combination with individual sugars, and in combination with salts) was “did not show germinant activity”.
For `OC[C@H]1O[C@@](CO)(O[C@H]2O[C@H](CO)[C@@H](O)[C@H](O)[C@H]2O)[C@@H](O)[C@@H]1O` [sucrose], the “germination of spores by substance alone” value [1] was “None of L-alanine, L-cysteine, D-fructose, or sucrose alone, at a concentration of 3 mM, caused germination”.
